Experimental data published in patent publication US20110189260A1, “USE OF ZINC CHELATORS TO INHIBIT BIOFILM FORMATION” (UNIVERSITY OF CINCINNATI, priority 2008, published 2011).
Where “and” joins values, the source holds several entries; their conditions need not be identical. Identical values can stand only once. Entries after “also recorded” stand apart in the source; their conditions may differ.

Experiments:
[1] = system: Staphylococcus aureus Strain Rosenbach SA113; assay: Biofilm formation assay in FBS pre-treated 96 well plates, crystal violet (Example 9); format: cell-based; conditions: SA113, 2% glucose, 36-40 hours
Protocol: In addition, 96 well microtiter plates were pre-treated with fetal bovine serum (FBS) at 4° C. for at least 24 hours prior to use. The FBS was aspirated prior to addition of chelators and glucose for the assay. […] The 96 well plates were then incubated 36-40 hours statically at 37° C. Media was aspirated by pipet and wells were washed twice with filtered water. The plates were dried by inversion for 1 hour, and stained with 0.1% crystal violet for 15 minutes. Crystal violet was then aspirated by pipet and washed once with filtered water. The plates were then read on a spectrophotometer at a wavelength of 570 nm.

[2] = system: Staphylococcus aureus Strain COL; assay: Biofilm formation assay in FBS pre-treated 96 well plates, crystal violet (Example 10); format: cell-based; conditions: 2% sucrose, 36-40 hours
Protocol: 3 ml overnight cultures were grown in blood-heart infusion broth (BHI) shaking at 37° C., where cultures were diluted 1:25 for use in the biofilm assay.
2% sucrose (20 μl from a 20% sucrose stock) was added to each well prior to the addition of the bacterial culture to promote biofilm formation. In addition, 96 well microtiter plates were pre-treated with fetal bovine serum (FBS) at 4° C. for at least 24 hours prior to use. The FBS was aspirated prior to addition of chelators and sucrose for the assay. […] 20 μl of each stock solution (200, 400, 800, 1600, 3200, 6400, 13000, or 26000 μM chelator) was added to each well. 200 μl of the 1:25 dilution of COL bacterial culture (as previously specified) was added to each well. Controls with bacterial culture media only and bacterial culture media plus vehicle controls only (i.e, final concentrations 10 mM HCl, 10% ethanol, and 10 mM NaOH) were added to wells alone without chelator. The 96 well plates were then incubated 36-40 hours statically at 37° C. Media was aspirated by pipet and wells were washed twice with filtered water. The plates were dried by inversion for 1 hour, and stained with 0.1% crystal violet for 15 minutes. Crystal violet was then aspirated by pipet and washed once with filtered water. The plates were then read on a spectrophotometer at a wavelength of 570 nm. An absorbance greater than 0.1 indicates biofilm formation.

[3] = system: Methicillin-Resistant Staphylococcus aureus Strain USA300; assay: Biofilm formation assay in fibronectin pre-treated 96 well plates, crystal violet (Example 11); format: cell-based; conditions: USA300, 2% glucose, 36-40 hours
Protocol: S. aureus strain USA300 was obtained from Daniel Hassett (University of Cincinnati) as a glycerol stock. 3 ml overnight cultures were grown in blood-heart infusion broth (BHI) shaking at 37° C., where cultures were diluted 1:25 for use in the biofilm assay. 2% glucose (20 ul from a 20% glucose stock) was added to each well prior to the addition of bacterial culture to promote biofilm formation. In addition, 96 well microtiter plates were pre-treated with human fibronectin (BD biomedical purchased from Fisher scientific). The fibronectin was aspirated prior to addition of chelators and glucose for the assay. Each chelator (prepared in Examples 1-6) was added directly to a 96 well microtiter plate in a series of dilutions. 20 μl of each stock solution (200, 400, 800, 1600, 3200, 6400, 13000, or 26000 μM chelator) was added to each well. 200 μl of the 1:25 dilution of USA300 bacterial culture dilution (as previously specified) were added to each well. Controls with bacterial culture media only and bacterial culture media plus vehicle controls only (final concentrations 10 mM HCl, 10% ethanol, and 10 mM NaOH) were added to wells alone without chelator. The 96 well plates were then incubated 36-40 hours statically at 37° C. Media was aspirated by pipet and wells were washed twice with filtered water. The plates were dried by inversion for 1 hour, and stained with 0.1% crystal violet for 15 minutes. Crystal violet was then aspirated by pipet and washed once with filtered water. The plates were then read on a spectrophotometer at a wavelength of 570 nm. An absorbance greater than 0.1 indicates biofilm formation.

[4] = system: Methicillin-Resistant Staphylococcus epidermidis Strain RP62a; assay: Biofilm formation assay in 96 well plates, crystal violet, absorbance at 570 nm (Example 8); format: cell-based; conditions: 18-24 hours, 37° C.
Protocol: S. epidermidis strain RP62a (ATCC 35984) was obtained as a glycerol stock from ATCC. 3 ml overnight cultures were grown in tryptic soy broth (TSB, BD Biomedical), shaking at 37° C., and cultures were diluted 1:200 in TSB for use in the biofilm assay.
Each chelator (prepared in Examples 1-6) was added directly to a 96 well microtiter plate in a series of dilutions. 20 μl of each stock solution (200, 400, 800, 1600, 3200, 6400, 13000, or 26000 μM chelator) was added to each well. 200 μl of the 1:200 dilution of RP62a bacterial culture (as previously specified) was added to each well. Controls with bacterial culture media only and bacterial culture media plus vehicle controls only (i.e., final concentrations 10 mM HCl, 10% ethanol, or 10 mM NaOH) were added to wells alone without chelator. The 96 well plates were then incubated 18-24 hours statically at 37° C. Media was aspirated by pipet and wells were washed twice with filtered water. The plates were dried by inversion for 1 hour, and stained with 0.1% crystal violet for 15 minutes. Crystal violet was then aspirated by pipet and washed once with filtered water. The plates were then read on a spectrophotometer at a wavelength of 570 nm. An absorbance greater than 0.1 indicates biofilm formation.

[5] = system: S. epidermidis RP62A biofilms; assay: RP62A biofilms on polystyrene visualized with crystal violet (FIG. 3A, 3C, 4, 7, 8); format: cell-based; conditions: RP62A; for effect of divalent cation salt on biofilm inhibition by DTPA: up to 60 μM salt, FIG. 7
Protocol: (§1) FIG. 3. (A) S. epidermidis RP62A biofilms formed on polystyrene and were visualized with crystal violet; addition of the Zn^2+ chelator DTPA (≧30 μM) inhibits biofilm formation. Representative wells have been scanned (bottom). Untreated (“RP62A”) and vehicle (“HCl”) controls are shown. Error bars show standard deviation (* indicates p<0.05 relative to untreated control; n=3); (B) Methicillin-resistant S. aureus USA300 biofilms form on fibronectin-coated plates but are inhibited by addition of DTPA (≧30 μM). (*: p<0.05; n=4); (C) Addition of 5-20 μM ZnCl2 at a minimal inhibitory dose of DTPA (30 μM) rescues biofilm formation by RP62A.
FIG. 4. […] (*: p<0.05 relative to RP62A control at the relevant Zn^2+ concentration; n=3); (B) Dose response of biofilm inhibition by MBP-Brpt1.5 at a fixed 1 mM ZnCl2 concentration. (*: p<0.0005; n=3); (C) The “zinc zipper” model for intercellular adhesion in staphylococcal biofilms mediated by zinc-dependent self-association of G5 domains.
FIG. 7. […] All data at 30 μM DTPA show statistically significant decreases compared to no-treatment control (RP62A). Statistically significant increases over the 0 μM MnCl2/30 μM DTPA datapoint are marked with an asterisk (*).
To test the physiological role of Zn^2+-mediated G5 adhesion in the formation of staphylococcal biofilms, both S. epidermidis and S. aureus biofilms were grown in culture in the presence or absence of the Zn^2+ chelator diethylenetriaminepentaacetic acid (DTPA). DTPA was non-toxic at all concentrations tested (up to 100 μM). S. epidermidis strain RP62A formed robust biofilms when cultured in media alone, but biofilm growth was inhibited by non-toxic doses of DTPA (≧30 μM) (FIG. 3A).
To determine whether Zn^2+-dependent biofilm formation is specifically dependent upon G5 domain-mediated self-assembly, soluble Brpt1.5 was added to S. epidermidis RP62A biofilms as a maltose-binding protein (MBP) fusion. Because of the higher Zn^2+ concentrations required to induce dimerization in the short construct compared to full-length Aap, inhibition by MBP-Brpt1.5 was tested at Zn^2+ concentrations ranging up to 1 mM. RP62A biofilms were inhibited by soluble MBP-Brpt1.5 in the presence of 0.75 and 1 mM ZnCl2, whereas addition of MBP alone had no effect (FIG. 4A). […] Thus, addition of even a single intact zinc adhesion module in a soluble form is capable of inhibiting biofilm formation, highlighting the role of this domain as a Zn^2+-dependent adhesion module in staphylococcal biofilms.

[6] = system: Methicillin-resistant S. aureus USA300 biofilms; assay: USA300 biofilms on fibronectin-coated plates (FIG. 3B, 3D); format: cell-based; conditions: USA300, at minimal inhibitory dose of DTPA (30 μM), FIG. 3D
Protocol: as §1
S. aureus strain USA300, which is responsible for recent epidemic outbreaks of community-acquired methicillin-resistant S. aureus (MRSA) infections, formed biofilms on fibronectin-coated plates. As observed for S. epidermidis, the MRSA biofilms were inhibited by Zn^2+ chelation (≧30 μM DTPA) (FIG. 3B). […] Like S. epidermidis, the MRSA strain USA300 could be rescued by the addition of 15-20 μM ZnCl2 (FIG. 3D). Importantly, at the minimal inhibitory concentration of DTPA (30 μM), biofilm growth by both staphylococcal species could be rescued by the addition of 5-20 μM ZnCl2; these Zn^2+ concentrations are similar to the physiological range in human plasma (12-16 μM resting concentration).

[7] = biological target: Aap (Accumulation-associated protein) on Staphylococcus epidermidis strain RP62A cells (Staphylococcus epidermidis); assay: cell-based or functional assay

| Molecule | chelator concentration at which biofilms were diminished but not cleared [1] [µM] | chelator concentration at which biofilms were inhibited (absorbance of 0.1 or less) [1] [µM] | chelator concentration at which biofilms were diminished but not cleared [2] [µM] | chelator concentration at which biofilms were diminished but not cleared [4] [µM] | chelator concentration at which biofilms were inhibited (absorbance of 0.1 or less) [4] [µM] | effect of divalent cation salt on biofilm inhibition by DTPA ([5]; 30 μM DTPA) | other results |
| --- | --- | --- | --- | --- | --- | --- | --- |
| c1cnc2c(c1)ccc1cccnc12 [1,10-phenanthroline] | 320 | 1300 | 80 | 80 | 640 |  | chelator concentration above which biofilms were inhibited (absorbance of 0.1 or less) [2]: > 320 µM; chelator concentration above which biofilms were inhibited (absorbance of 0.1 or less) [3]: > 1.3 mM; chelator concentration at which biofilms were diminished but not cleared [3]: 160 µM |
| [Ca+2].[Cl-].[Cl-] [CaCl2] |  |  |  |  |  | does not reverse; also recorded: no effect |  |
| CCN(CC)C(=S)S [DEDTC, diethyldithiocarbamate] | 80 | 80 | 20 | 20 | 1300 |  | chelator concentration above which biofilms were inhibited (absorbance of 0.1 or less) [2]: > 80 µM |
| O=C(O)CNCCNCC(=O)O [EDDA, ethylenediamine-N,N′-diacetic acid] | 20 | 640 | 160 | 80 |  |  |  |
| O=C(O)CN(CCN(CC(=O)O)CC(=O)O)CC(=O)O [EDTA, ethylenediaminetetra-acetic acid] | 320 |  | 20 | 40 | 320 |  | chelator concentration above which biofilms were inhibited (absorbance of 0.1 or less) [2]: > 160 µM; chelator concentration above which biofilms were inhibited (absorbance of 0.1 or less) [3]: > 2.6 mM; chelator concentration at which biofilms were diminished but not cleared [3]: 1300 µM |
| [Cl-].[Cl-].[Mg+2] [MgCl2] |  |  |  |  |  | does not reverse; also recorded: no effect |  |
| [Cl][Mn][Cl] [MnCl2] |  |  |  |  |  | partial rescue | concentration that effected partial rescue of biofilm formation ([5]; 30 μM DTPA, FIG. 7D): ≥ 10 µM |
| [Cl-].[Cl-].[Sr+2] [SrCl2] |  |  |  |  |  | does not reverse; also recorded: no effect |  |
| c1ccc(CN(CCN(Cc2ccccn2)Cc2ccccn2)Cc2ccccn2)nc1 [TPEN, N,N,N′,N′-tetrakis(2-pyrdiylmethyl)ethylenediamine] | 20 | 40 |  |  | 20 |  | chelator concentration at which biofilms were diminished but not cleared [3]: 20 µM |
| [Cl-].[Cl-].[Zn+2] [ZnCl2] |  |  |  |  |  |  | concentration that rescues biofilm formation ([5]; at minimal inhibitory dose of DTPA (30 μM), FIG. 3C): 5 to 20 µM; concentration that rescues biofilm formation [6]: 15 to 20 µM |
| MBP-Brpt1.5 (soluble Brpt1.5 as a maltose-binding protein fusion) (from UniProt Q8CQD9 1089-1296) |  |  |  |  |  |  | concentration that completely abolished RP62A biofilm formation at 1 mM ZnCl2 [7]: 10 µM and 22 µM |
| MBP-Brpt1.5: soluble Brpt1.5 as a maltose-binding protein (MBP) fusion (protein, left off: large carriers) VDGDSITSTEEIPFDKKREFDPNLAPGTEKVVQKGEPGTKTITTPTTKNPLTGEKVGEGEPTEKITKQPVDEIVHYGGEQIPQGHKDEFDPNAPVDSKTEVPGKPGVKNPDTGEVVTPPVDDVTKYGPVDGDSITSTEEIPFDKKREFDPNLAPGTEKVVQKGEPGTKTITTPTTKNPLTGEKVGEGKSTEKVTKQPVDEIVEYGPTK |  |  |  |  |  |  | inhibition of biofilms by soluble protein ([5]; fixed 750 μM ZnCl2, FIG. 8): Dose-dependent biofilm inhibition; concentration that completely abolished biofilm formation ([5]; fixed 1 mM ZnCl2, FIG. 4B): 10 to 22 µM; inhibition of biofilms by soluble protein ([5]; in the presence of 0.75-1 mM ZnCl2, FIG. 4A): inhibits RP62A biofilms in a dose-dependent manner; also recorded: inhibited |
